# In US9550793B2, “Spirocyclic compounds, compositions and medicinal applications thereof” (Advinus Therapeutics Limited, priority 2012, dated 2017):
# Experiments:
# [1] = target: T1, recombinant human DGAT1 (hDGAT1) (Homo sapiens, UniProt O75907); experiment: Membrane-based recombinant hDGAT1 inhibitory activity using radiometry method (Method B); assay type: biochemical; settings: values marked *: Method B (radiometry); Sf9 membranes expressing hDGAT1
# T1 construct: host or cells: Sf9 insect cells (baculovirus expression system), used as membrane preparation
# T1 sequence (O75907 1-488): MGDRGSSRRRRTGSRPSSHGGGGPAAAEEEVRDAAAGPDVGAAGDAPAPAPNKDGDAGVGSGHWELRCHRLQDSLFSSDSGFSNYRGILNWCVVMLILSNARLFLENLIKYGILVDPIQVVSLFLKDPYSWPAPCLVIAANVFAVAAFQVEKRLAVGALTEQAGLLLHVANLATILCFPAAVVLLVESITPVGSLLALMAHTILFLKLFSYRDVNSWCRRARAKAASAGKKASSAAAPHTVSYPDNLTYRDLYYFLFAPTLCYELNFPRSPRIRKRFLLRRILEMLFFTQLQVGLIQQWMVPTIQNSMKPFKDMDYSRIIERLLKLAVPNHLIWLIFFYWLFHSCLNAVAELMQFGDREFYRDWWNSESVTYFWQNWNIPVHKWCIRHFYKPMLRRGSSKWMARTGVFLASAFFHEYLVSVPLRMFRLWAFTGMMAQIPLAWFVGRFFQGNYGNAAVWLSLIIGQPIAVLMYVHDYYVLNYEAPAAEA
# Protocol: Measurement of Membrane-Based Recombinant hDGAT1 Inhibitory Activity Using Radiometry Method (Method B):
# The determination of recombinant human DGAT1 (hDGAT1) activity was carried out using a Radiometry based assay system based on literature report [European Journal of Medicinal Chemistry (2012), August; 54:324-42]. In brief, baculovirus expression system (Sf9) membranes expressing hDGAT1 were employed for the membrane based assay.
# Radiometry hDGAT1 assays were performed using 1 μg of the hDGAT1, pre-incubated with 100 μl of the assay buffer [100 mM Tris-HCl (pH 7.5), 250 mM sucrose, and 1.25 mg/ml fatty acid free BSA] containing a known concentration of the inhibitor and supplemented with 300 μM of 1,2-dioleoylglycerol. The hDGAT1 reaction was initiated following an addition of 16.8 nCi of [14C]-oleoyl CoA. The reaction was terminated after 30 minutes of incubation at 37° C. using 300 μl alkaline ethanol stop solution mix (AESSM) [12.5% of 100% non-denatured ethanol, 10% deionized water, 2.5% NaOH, and 75% stop solution (78.4% isopropanol, 19.6% n-heptane, 2% deionized water)]. The ^14C triglyceride formed in this reaction was extracted using 600 μl of heptane. 250 μl of this extracted heptane was added to scintillation fluid and subjected to radioactivity measurement.
# [2] = target: T1, recombinant human DGAT1 (hDGAT1); experiment: Membrane-based recombinant hDGAT1 inhibitory activity using LCMS method (Method A); assay type: biochemical; settings: Sf9 membranes expressing hDGAT1
# hDGAT1 = target: T2, hDGAT1 (Homo sapiens, UniProt O75907); experiment: Cell based hDGAT1 inhibitory activity in HEK293H cells (13C-oleic acid to triolein, LC-MS)
# T2 construct: endogenous in cells; host or cells: HEK293H cells
# T2 sequence (O75907 1-488): T1 sequence (O75907 1-488)
# Protocol: Measurement of Cell Based hDGAT1 Inhibitory Activity:
# HEK293H cells were seeded in a 96-well poly-D-lysine plate at a density of 80000 cells per well. Following day, cells were washed with assay buffer-DMEM high glucose supplemented with 25 mM Hepes (pH7.5) carrying 0.25% fatty acid-free bovine serum. The cells were starved in assay buffer at 37° C./5% CO2 followed by removal of media and treatment with appropriate concentrations of the test compound at a final concentration of 0.2% DMSO for 20 min. 13C-Oleic acid pre-complexed with BSA (300 uM) was added and cells were incubated further at […]/5% CO2 for 120 min. The supernatant was removed and the cells were allowed to air dry briefly. The extraction solvent (90% isopropyl alcohol and 10% tetrahydrofuran with 20 nM of the internal standard [1,3-di-heptadecanoyl-2-(10Z-heptadecanoyl)-sn-glycerol-d5) was added to the cells, and allowed to shake at room temperature for 15 min. The extract was then transferred to glass vials for LC-MS analysis. An Applied Biosystems API3200 LC/MS system interfaced with a triplequadrupole mass spectrophotometer through a Turbo ion spray source was employed for the LC separation of the analytes using a Hi-Purity ADVANCE column eluted with 10 mM ammonium formate in IPA-H2O (80:20) at a flow rate of 0.4 mL/min. A characteristic in-source fragment ion m/z 639.7 formed from the precursor ion ^13C-54-triolein (m/z 956.8, ammonium adduct) at a collision energy of 30 and declustering potential 70 was monitored. IC50 values of the compounds were determined based on percent inhibition calculated on the basis of area ratio of product (TG) and internal standard (IS).
IC50 [1] [nM],IC50 [2] [nM],IC50 (hDGAT1) [nM],SMILES
25,–,–,"O=C(Nc1ccc(N2CCC3(CC2)CC(C(=O)O)C3)nc1)c1nnc(Nc2ccc(Cl)cc2)o1 [Example B36, 7-[5-[[5-(4-chloroanilino)-1,3,4-oxadiazole-2-carbonyl]amino]-2-pyridyl]-7-azaspiro[3.5]nonane-2-carboxylic acid]"
6.9,–,–,"O=C(O)CC1CC2(CCN(c3ccc(NC(=O)c4nnc(Nc5ccc(F)c(F)c5)o4)cn3)CC2)C1 [Example B32, 2-[7-[5-[[5-(3,4-difluoroanilino)-1,3,4-oxadiazole-2-carbonyl]amino]-2-pyridyl]-7-azaspiro[3.5]nonan-2-yl]acetic acid]"
20,–,–,"O=C(O)CC1CC2(CCN(c3ccc(NC(=O)c4nnc(Nc5ccc(F)c(F)c5)o4)cc3)CC2)C1 [Example B40, 2-[7-[4-[[5-(3,4-difluoroanilino)-1,3,4-oxadiazole-2-carbonyl]amino]phenyl]-7-azaspiro[3.5]nonan-2-yl]acetic acid]"
22,–,–,"O=C(Nc1ccc(N2CCC3(CC2)CC(C(=O)O)C3)nc1)c1nnc(Nc2cccc(C(F)(F)F)c2)o1 [Example B37, 7-[5-[[5-[3-(trifluoromethyl)anilino]-1,3,4-oxadiazole-2-carbonyl]amino]-2-pyridyl]-7-azaspiro[3.5]nonane-2-carboxylic acid]"
19,–,–,"O=C(Nc1ccc(N2CCC3(CC2)CC(C(=O)O)C3)nc1)c1nnc(Nc2cccc(F)c2)o1 [Example B35, 7-[5-[[5-(3-fluoroanilino)-1,3,4-oxadiazole-2-carbonyl]amino]-2-pyridyl]-7-azaspiro[3.5]nonane-2-carboxylic acid]"
–,130,450,"O=C(Nc1ccc(N2C3CCC2CC2(C3)CC2C(=O)O)nc1)c1nnc(Nc2ccc(F)c(F)c2)o1 (stereo not drawn) [Example B30, 8-[5-[[5-(3,4-difluoroanilino)-1,3,4-oxadiazole-2-carbonyl]amino]-2-pyridyl] spiro [8-azabicyclo [3.2.1]octane-3,2′-cyclopropane]-1′-carboxylic acid]"
–,59,68,"O=C(Nc1ccc(N2CCC3(CC2)CC3C(=O)O)nc1)c1nnc(Nc2ccc(F)c(F)c2)o1 (stereo not drawn) [Example B19, 6-[5-[[5-(3,4-difluoroanilino)-1,3,4-oxadiazole-2-carbonyl]amino]-2-pyridyl]-6-azaspiro [2.5] octane-2-carboxylic acid]"
–,23,10,"O=C(O)CC1CCC2(CC1)CCN(c1ccc(NC(=O)c3nnc(Nc4ccc(F)c(F)c4)o3)cn1)CC2 [Example B7, 2-[9-[5-[[5-(3,4-difluoroanilino)-1,3,4-oxadiazole-2-carbonyl]amino]-2-pyridyl]-9-azaspiro [5.5]undecan-3-yl] acetic acid]"
–,53,465,"O=C(Nc1ccc(N2CCCC3(CC3C(=O)O)C2)nc1)c1nnc(Nc2ccc(F)c(F)c2)o1 (stereo not drawn) [Example B22, 7-[5-[[5-(3,4-difluoroanilino)-1,3,4-oxadiazole-2-carbonyl]amino]-2-pyridyl]-7-azaspiro [2.5] octane-2-carboxylic acid]"

# The remaining lines, values behind:
SMILES,IC50 [1] [nM],IC50 [2] [nM],IC50 (hDGAT1) [nM]
"O=C(O)CC1CC2(CCN(c3ccc(NC(=O)c4nnc(Nc5ccccc5F)o4)cn3)CC2)C1 [Example B33, 2-[7-[5-[[5-(2-fluoroanilino)-1,3,4-oxadiazole-2-carbonyl]amino]-2-pyridyl]-7-azaspiro[3.5]nonan-2-yl]acetic acid]",26,–,–
"O=C(Nc1ccc(N2CCC3(CC2)CC(C(=O)O)C3)nc1)c1nnc(Nc2ccccc2)o1 [Example B34, 7-[5-[(5-anilino-1,3,4-oxadiazole-2-carbonyl)amino]-2-pyridyl]-7-azaspiro[3.5]nonane-2-carboxylic acid]",24,–,–
"O=C(O)CC1CCC2(CC1)CCC(c1ccc(NC(=O)c3nnc(Nc4ccc(F)c(F)c4)o3)cc1)CC2 (stereo not drawn) [Example B3, 2-[9-[4-[[5-(3,4-difluoroanilino)-1,3,4-oxadiazole-2-carbonyl]amino]phenyl]spiro [5.5]undecan-3-yl] acetic acid]",–,48,15
"O=C(O)CC1CC2(CCN(c3ccc(NC(=O)c4nnc(Nc5ccccc5F)o4)cc3)CC2)C1 [Example B38, 2-[7-[4-[[5-(2-fluoroanilino)-1,3,4-oxadiazole-2-carbonyl]amino]phenyl]-7-azaspiro[3.5]nonan-2-yl]acetic acid]",50,–,–
"Nc1ncnc2c1C(=O)N(c1ccc(C3CCC4(CCC(CC(=O)O)CC4)CC3)cc1)CCO2 (stereo not drawn) [Example H3, 2-[9-[4-(4-amino-5-oxo-7,8-dihydropyrimido[5,4-f][1,4]oxazepin-6-yl)phenyl]spiro[5.5]undecan-3-yl]acetic acid]",–,42,15
"O=C(Nc1ccc(N2CCC3(CC2)CC3C(=O)O)cc1)c1nnc(Nc2ccccc2)o1 (stereo not drawn) [Example B27, 6-[4-[(5-anilino-1,3,4-oxadiazole-2-carbonyl)amino]phenyl]-6-azaspiro [2.5] octane-2-carboxylic acid]",–,167,47
"O=C(O)CC1CC2(CCN(c3ccc(NC(=O)c4nnc(Nc5ccccc5)o4)cc3)CC2)C1 [Example B39, 2-[7-[4-[(5-anilino-1,3,4-oxadiazole-2-carbonyl)amino]phenyl]-7-azaspiro[3.5]nonan-2-yl]acetic acid]",47,–,–
"O=C(Nc1ccc(C2CCC3(CC2)CC(C(=O)O)C3)cc1)c1nnc(Nc2cccc(Cl)c2)o1 (stereo not drawn) [Example B10, 7-[4-[[5-(3-chloroanilino)-1,3,4-oxadiazole-2-carbonyl]amino]phenyl] spiro [3.5] nonane-2-carboxylic acid]",–,13,8.6
"O=C(O)CC1CCC2(CC1)CCC(c1ccc(NC(=O)c3nnc(Nc4ccccc4)o3)cn1)CC2 (stereo not drawn) [Example B2, 2-[9-[5-[(5-anilino-1,3,4-oxadiazole-2-carbonyl)amino]-2-pyridyl]spiro [5.5]undecan-3-yl] acetic acid]",–,30,15
"O=C(O)CC1CC2(CCC(c3ccc(NC(=O)c4nnc(Nc5ccc(F)c(F)c5)o4)cc3)CC2)C1 (stereo not drawn) [Example B8, 2-[7-[4-[[5-(3,4-difluoroanilino)-1,3,4-oxadiazole-2-carbonyl]amino]phenyl]spiro [3.5]nonan-2-yl] acetic acid]",–,79,21
"O=C(O)CC1CCC2(CC1)CCC(c1ccc(NC(=O)c3nnc(Nc4ccccc4)o3)cc1)CC2 (stereo not drawn) [Example B4, 2-[9-[4-[(5-anilino-1,3,4-oxadiazole-2-carbonyl)amino]phenyl]spiro [5.5]undecan-3-yl] acetic acid]",–,117,16
"Nc1ncnc2c1C(=O)N(c1ccc(C3CCC4(CC3)CC4C(=O)O)cc1)CCO2 (stereo not drawn) [Example I4, 6-[4-(4-amino-5-oxo-7,8-dihydropyrimido[5,4-f][1,4]oxazepin-6-yl)phenyl]spiro[2.5]octane-2-carboxylic acid]",–,94,35
